Where “and” joins values, the source holds several entries; their conditions need not be identical. Equal values may be shown once. Each block holds one compound with its values, some of them ahead of it.
Tests used:
Type in all cases: physicochemical
[1] = Particle size analysis (PSA), Malvern Mastersizer 2000
Description: Particle size data was acquired using a Malvern Instruments Mastersizer 2000 equipped with a Hydro2000 μP dispersion unit. Data was collected and analyzed using Mastersizer 2000 software (v. 5.60) using volume based measurements. NIST-traceable glass beads were used to qualify the instrument.

[2] = Estimated solubility by aliquot addition of solvent, visual inspection; conditions: for solubility: thermodynamic from solid
Method: The present disclosure provides morphic Form II with low solubility in methanol. The solubility may be estimated based on the total volume of solvent needed to provide complete dissolution. The actual solubility may be greater than the value calculated due to the incremental addition of solvent and kinetics of dissolution of the material. […] Solubility Determination: Aliquots of test solvents or solvent mixtures were added to weighed samples of Compound 1. Samples were sonicated as needed between additions to facilitate dissolution. Complete dissolution of the test material in each solvent was determined by visual inspection. The solubility was estimated based on the total volume of solvent needed to provide complete dissolution. The actual solubility may be greater than the value calculated due to the incremental addition of solvent and kinetics of dissolution of the material. […] See Table 2 and discussion under “Solubility” section in the “Detailed Description” of the present disclosure.

[3] = Stable form screening slurries and interconversion studies; conditions: for Form recovered from slurries: seeded with Form I, about two weeks
Method: In order to aid in the design of solid form screening experiments, solubility estimates were completed in various solvent systems using Form II at ambient and elevated temperature. […] Slurries were set up in a variety of solvent systems to determine the stable form and the potential of Compound 1 to form stable solvates. The slurries were prepared using Form II and each was seeded with Form I. Each of the slurries was stirred for about two weeks and most of the slurries were run at room temperature although a few were run at sub-ambient and elevated temperatures (˜45° C.). […] A few samples did show a minor amount of Form I in Form II likely due to poor conversion kinetics due to limited solubility. […] Interconversion studies starting with a mixture of Form I and Form II were also run in methanol at room temperature and ˜45° C.

[4] = Slurry conversion of Form II to Form H in methanol:water, seeded with Form H; conditions: for Results (form recovered from slurry): stirred 7-9 days
Method: The present disclosure provides that an anhydrous form (e.g. Form II) is produced without forming a hydrate form (e.g., Form H) during the crystallization process, by determining the critical water concentration below which the anhydrous form is the stable form. The critical water concentration is determined by varying the methanol-water concentrations in the slurries.
In another embodiment, at concentrations of 97:3 methanol:water and greater, Form H was recovered from the slurries. These embodiments provide that the critical water concentration for forming Form II is between 1 and 3% water. In some embodiments, water in the initial methanol solvent is not accounted for, which results in slightly higher final water concentration than 1 and 3%. In additional embodiments, experiments, by varying the methanol-water concentrations in the slurries, is carried out at room temperature or at about 45° C. In one embodiment, the critical water concentration is less than 5% at room temperature and less than 10% at about 45° C. Mixtures of Form II and Form H are observed to convert to either Form II or Form H in methanol depending on the exact water content. The present disclosure provides that during crystallization of Form II, critical water activity remains very low up to about 45° C. and that water content in the final methanol recrystallization is a critical process parameter to control to avoid operating in conditions which favors formation of Form H.

[5] = Weight increase upon increasing relative humidity; conditions: upon increasing relative humidity from 5.0% to 95.0%
Description: In another embodiment of the invention, provided herein is Form II characterized as a solid form of Compound 1, such that the solid form undergoes a weight increase of less than 1.5% upon increasing relative humidity from 5.0% to 95.0%.

[6] = Relative humidity (RH) stressing of Form II
Description: In some embodiments, a composition comprising morphic Form II of the present disclosure converts to a hydrate Form (e.g., Form H) if stored under relative humidity (RH) of 40% or more. In some embodiments, a composition comprising morphic Form II of the present disclosure partially converts to morphic Form H if stored under relative humidity of equal to or more than 40% for several days. […] A complete conversion of a composition comprising the morphic Form II of the present disclosure occurs at about equal to or more than 80% RH, about equal to or more than 81% RH, about equal to or more than 82% RH, about equal to or more than 83% RH, about equal to or more than 84% RH, about equal to or more than 85% RH, about equal to or more than 86% RH, about equal to or more than 87% RH, about equal to or more than 88% RH, about equal to or more than 89% RH over between 5-20 days (e.g., 5 days, 6 days, 7 days, 8 days, 9 days, 10 days, 11 days, 12 days, 13 days, 14 days, 15 days, 16 days, 17 days, 18 days, 19 days, 20 days).
The present disclosure provides that exposure of Form II to higher humidity is sufficient for conversion to the hydrate form.

[7] = Methanol solubility and metastable zone (MSZ), Crystal16; conditions: for Cloud Point 2: 0.03 C./min cooling rate; for Cloud Point 1: 0.5° C./min cooling rate
Method: MSZW is a nucleation kinetic-limited parameter that is highly dependent on process condition. Many factors may influence the value of MSZW, e.g., rate of cooling, agitation, the presence of foreign particles and impurities. MSZW decreases as stirrer speed increases; MSZW widens at N>400 rpm; and MSZW widens as cooling rate rises. In one embodiment, large differences in the metastable zone are observed for both Form II and Form I between the rapid cooling rate of about 0.5° C./min and a very slow cooling rate of about 0.03° C./min. In another embodiment, narrow metastable cooling rates are observed at higher concentrations (e.g., about 100 mg/mL).

[8] = 10% of total volume of particles no larger than the indicated size
[9] = 50% of total volume of particles no larger than the indicated size
[10] = 90% of total volume of particles no larger than the indicated size
[11] = crystallized from methanol ~10 vols, seed ~0.5% Form II at ~58° C.
[12] = crystallized from methanol ~10 vols, seed ~3% Form II

d10 [1, 8]: 19.896 μm
d50 [1, 9]: 101.748 μm and 101.745 μm
SMILES: CCCCCCCCCCCCCCCCOCCCOP(=O)(O)CO[C@H](CO)Cn1ccc(N)nc1=O [Sample 3]

d10 [1, 8]: 19.297 μm
d50 [1, 9]: 81.603 μm
d90 [1, 10]: 168.698 μm
SMILES: CCCCCCCCCCCCCCCCOCCCOP(=O)(O)CO[C@H](CO)Cn1ccc(N)nc1=O [Sample 1]

d10 [1, 8]: 17.410 μm
d50 [1, 9]: 85.440 μm
d90 [1, 10]: 199.029 μm
SMILES: CCCCCCCCCCCCCCCCOCCCOP(=O)(O)CO[C@H](CO)Cn1ccc(N)nc1=O [Sample 4]

Solubility in various solvent systems ([2]; ambient and elevated temperature, each of the solvents tested): poor solubility
solubility ([2]; aqueous with cosolvent or surfactant or cyclodextrin, Methanol:Water 1:1, RT, estimated): < 3000 µg/mL
solubility ([2]; aqueous with cosolvent or surfactant or cyclodextrin, Methanol:Water 1:1, ~63 °C, estimated): < 14000 µg/mL
solubility ([2]; organic solvent or mixture, Trifluoroethanol, estimate): > 5000 µg/mL
Form recovered from slurries ([3]; anhydrous solvent systems, mostly room temperature): Form II was recovered
Form recovered from slurries ([3]; aqueous solvent systems): converted to the hydrated form, Form H
Solids recovered from interconversion studies ([3]; starting with a mixture of Form I and Form II, methanol, room temperature and ~45° C.): consistent with Form II
Results (form recovered from slurry) ([4]; Methanol:water (80:20), ~44-45 °C): Form H
Results (form recovered from slurry) ([4]; Methanol:water (85:15), ~44-45 °C): Form H
Results (form recovered from slurry) ([4]; Methanol:water (90:10), RT): Form H
Results (form recovered from slurry) ([4]; Methanol:water (90:10), ~44-45 °C): Form H
Results (form recovered from slurry) ([4]; Methanol:water (93:7), RT): Form H
Results (form recovered from slurry) ([4]; Methanol:water (93:7), ~2-8 °C): Form H
Results (form recovered from slurry) ([4]; Methanol:water (95:5), RT): Form H
Results (form recovered from slurry) ([4]; Methanol:water (95:5), ~2-8 °C): Form H
Results (form recovered from slurry) ([4]; Methanol:water (95:5), ~44-45 °C): Form II +
Results (form recovered from slurry) ([4]; Methanol:water (97:3), RT): Form II +
Results (form recovered from slurry) ([4]; Methanol:water (97:3), ~2-8 °C): Form H
Results (form recovered from slurry) ([4]; Methanol:water (99:1), ~2-8 °C): Form II
critical water concentration ([4]; about 45° C. slurries in methanol:water): less than 10%
critical water concentration ([4]; room temperature slurries in methanol:water): less than 5%
weight increase [5]: less than 1.5%
particle size distribution, volume weighted mean ([1]; FIG. 5): 25.663
d10 [1, 11]: d10 = 17.8 μm
d50 [1, 11]: 69.6 μm;
d90 [1, 11]: d90 = 160.9 μm
d10 [1, 12]: d10 = 9.8 μm
d50 [1, 12]: 34.4 μm;
d90 [1, 12]: d90 = 101.7 μm
Conversion to hydrate form on RH exposure ([6]; about 43% RH for about 12 days): partially converts to a hydrate form
Conversion from Form II to Form H on RH exposure ([6]; about 43 to about 85% RH for about 12 days): minor conversion from Form II to Form H
Conversion from Form II to Form H on RH exposure ([6]; about 85% RH): complete conversion of Form II to Form H
Solubility in methanol compared to Form I [7]: Lower solubility
Clear Point ([7]; 20.3 mg/mL): 53.6 °C
Cloud Point 2 ([7]; 20.3 mg/mL): 38.2 °C
Cloud Point 1 ([7]; 20.3 mg/mL): 37.6 °C
Clear Point ([7]; 29.4 mg/mL): 56.2 °C
Cloud Point 2 ([7]; 29.4 mg/mL): 44.6 °C
Cloud Point 1 ([7]; 29.4 mg/mL): 45.1 °C
Clear Point ([7]; 38.9 mg/mL): 58.1 °C
Cloud Point 2 ([7]; 38.9 mg/mL): 51.1 °C
Cloud Point 1 ([7]; 38.9 mg/mL): 45.1 °C
Clear Point ([7]; 50.5 mg/mL): 60.2 °C
Cloud Point 2 ([7]; 50.5 mg/mL): 56.6 °C
Cloud Point 1 ([7]; 50.5 mg/mL): 51.0 °C
Clear Point ([7]; 64.3 mg/mL): 60.5 °C
Cloud Point 2 ([7]; 64.3 mg/mL): 58.8 °C
Cloud Point 1 ([7]; 64.3 mg/mL): 48.5 °C
Clear Point ([7]; 80.4 mg/mL): 61.2 °C
Cloud Point 2 ([7]; 80.4 mg/mL): 57.9 °C
Cloud Point 1 ([7]; 80.4 mg/mL): 49.7 °C
Clear Point ([7]; 95.6 mg/mL): 61.9 °C
Cloud Point 2 ([7]; 95.6 mg/mL): 59.9 °C
Cloud Point 1 ([7]; 95.6 mg/mL): 58.1 °C
Clear Point ([7]; 166.6 mg/mL): 63.1 °C
Cloud Point 2 ([7]; 166.6 mg/mL): 61.1 °C
Cloud Point 1 ([7]; 166.6 mg/mL): 58.1 °C
SMILES: CCCCCCCCCCCCCCCCOCCCOP(=O)(O)CO[C@H](CO)Cn1ccc(N)nc1=O [Form II, phosphonic acid, [[(S)-2-(4-amino-2-oxo-1(2H)-pyrimidinyl)-1-(hydroxymethyl)ethoxy]methyl]mono[3-(hexadecyloxy)propyl] ester]

Source: patent publication US11912667B2, “Morphic forms of hexadecyloxypropyl-phosphonate esters and methods of synthesis thereof” (EMERGENT BIODEFENSE OPERATIONS LANSING LLC, priority 2013, dated 2024)
